Data: PubChem BioAssay AID1919007 (Molecular Pharmacology Branch, DTP, NCI, 2023)

System: A498 complex spheroids with HUVEC/MSC, growth
Test: Anticancer human tumor A498 cell line growth inhibition [AhR];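 also: seven day exposure starting three days after spheroid seeding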;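 as to viability, T/C: luminescence signal used as a surrogate for viable cells; luminescence viability scaled so 100% equals DMSO vehicle wells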
Settings: for IC50: curve of first compound; for viability, T/C: stronger effect = lower value
Method in brief: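 Spheroids combined tumor cells with HUVEC endothelial cells and human MSCs as stroma. AhR antagonists were paired with standard or investigational drugs, each dosed in half-log steps down from near clinical Cmax, or from 10 microM where Cmax was unknown.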

[1] = second compound 0.1 µM, first compound 0.0316 µM
[2] = second compound 0.1 µM, first compound 0.1 µM
[3] = second compound 0.1 µM, first compound 0.316 µM
[4] = second compound 0.1 µM, first compound 1 µM
[5] = second compound 0.1 µM, first compound 3.16 µM
[6] = second compound 0.1 µM, first compound 10 µM
[7] = second compound 0.316 µM, first compound 0.0316 µM
[8] = second compound 0.316 µM, first compound 0.1 µM
[9] = second compound 0.316 µM, first compound 0.316 µM
[10] = second compound 0.316 µM, first compound 1 µM
[11] = second compound 0.316 µM, first compound 3.16 µM
[12] = second compound 0.316 µM, first compound 10 µM
[13] = second compound 1 µM, first compound 0.0316 µM
[14] = second compound 1 µM, first compound 0.1 µM
[15] = second compound 1 µM, first compound 0.316 µM
[16] = second compound 1 µM, first compound 1 µM
[17] = second compound 1 µM, first compound 3.16 µM
[18] = second compound 1 µM, first compound 10 µM
[19] = second compound 3.16 µM, first compound 0.0316 µM
[20] = second compound 3.16 µM, first compound 0.1 µM
[21] = second compound 3.16 µM, first compound 0.316 µM
[22] = second compound 3.16 µM, first compound 1 µM
[23] = second compound 3.16 µM, first compound 3.16 µM
[24] = second compound 3.16 µM, first compound 10 µM
[25] = second compound 10 µM, first compound 0.0316 µM
[26] = second compound 10 µM, first compound 0.1 µM
[27] = second compound 10 µM, first compound 0.316 µM
[28] = second compound 10 µM, first compound 1 µM
[29] = second compound 10 µM, first compound 3.16 µM
[30] = second compound 10 µM, first compound 10 µM

| Structure (SMILES) | IC50 (second compound 0.1 µM) | IC50 (second compound 0.316 µM) | IC50 (second compound 1 µM) | IC50 (second compound 3.16 µM) | IC50 (second compound 10 µM) | viability, T/C [1] | viability, T/C [2] | viability, T/C [3] | viability, T/C [4] | viability, T/C [5] | viability, T/C [6] | viability, T/C [7] | viability, T/C [8] | viability, T/C [9] | viability, T/C [10] | viability, T/C [11] | viability, T/C [12] | viability, T/C [13] | viability, T/C [14] | viability, T/C [15] | further results |
| --- | --- | --- | --- | --- | --- | --- | --- | --- | --- | --- | --- | --- | --- | --- | --- | --- | --- | --- | --- | --- | --- |
| Nc1ccn(C2OC(CO)C(O)C2(F)F)c(=O)n1 (stereo not given) + CC(CO)NC(=O)c1cc(-c2ccc(Cl)cc2)nn(-c2cnn(C)c2)c1=O | < 31.6 nM | < 31.6 nM | < 31.6 nM | < 31.6 nM | < 31.6 nM | 26.1% | 25.7% | 24.6% | 35.1% | 32.8% | 29.9% | 27.5% | 25.8% | 31% | 32.3% | 35% | 28.3% | 25.6% | 29.8% | 32.1% | viability, T/C [16]: 30.2%; viability, T/C [17]: 34.4%; viability, T/C [18]: 29.2%; viability, T/C [19]: 27.6%; viability, T/C [20]: 26.1%; viability, T/C [21]: 34.2%; viability, T/C [22]: 33.7%; viability, T/C [23]: 29.6%; viability, T/C [24]: 27.8%; viability, T/C [25]: 33.2%; viability, T/C [26]: 30.1%; viability, T/C [27]: 27%; viability, T/C [28]: 29.5%; viability, T/C [29]: 27.5%; viability, T/C [30]: 24.1% |
| COc1cccc2c1C(=O)c1c(O)c3c(c(O)c1C2=O)CC(O)(C(=O)CO)CC3OC1CC(N)C(O)C(C)O1 (stereo not given) + CC(CO)NC(=O)c1cc(-c2ccc(Cl)cc2)nn(-c2cnn(C)c2)c1=O | 129 nM | 148 nM | 231 nM | 119 nM | < 31.6 nM | 55.1% | 55.6% | 37.6% | 16.1% | 2.16% | 0.7% | 55% | 53.3% | 43.3% | 16.4% | 2.65% | 0.83% | 56.1% | 56.2% | 47.7% | viability, T/C [16]: 20.4%; viability, T/C [17]: 4.74%; viability, T/C [18]: 2.49%; viability, T/C [19]: 52.6%; viability, T/C [20]: 49.8%; viability, T/C [21]: 44.1%; viability, T/C [22]: 11.3%; viability, T/C [23]: 3.01%; viability, T/C [24]: 1.69%; viability, T/C [25]: 46.6%; viability, T/C [26]: 38.5%; viability, T/C [27]: 31.9%; viability, T/C [28]: 1.3%; viability, T/C [29]: 2.75%; viability, T/C [30]: 0.83% |
